Results taken from ChEMBL document CHEMBL5260836, “Combating Autoimmune Diseases With Retinoic Acid Receptor-Related Orphan Receptor-γ (RORγ or RORc) Inhibitors: Hits and Misses” (J Med Chem, 2018).
≈ marks a conversion by molar mass, not a printed value.

Columns and labels:
hERG (KCNH2) = hERG (KCNH2) (Homo sapiens, UniProt Q12809); assay: Inhibition of human ERG at 3 uM relative to control; assay type: toxicity
cells [1] = conditions: Homo sapiens, Th17
Description: Inhibition of IL-17 production in human Th17 cells

[2] = target: T1, Nuclear receptor ROR-gamma (Homo sapiens, UniProt P51449); assay: Inverse agonist activity at human GAL4-RORgamma […] expressed in HEK293 cells measured after 24 hrs by ligand binding assay; assay type: cell-based
T1 sequence (P51449 whole entry): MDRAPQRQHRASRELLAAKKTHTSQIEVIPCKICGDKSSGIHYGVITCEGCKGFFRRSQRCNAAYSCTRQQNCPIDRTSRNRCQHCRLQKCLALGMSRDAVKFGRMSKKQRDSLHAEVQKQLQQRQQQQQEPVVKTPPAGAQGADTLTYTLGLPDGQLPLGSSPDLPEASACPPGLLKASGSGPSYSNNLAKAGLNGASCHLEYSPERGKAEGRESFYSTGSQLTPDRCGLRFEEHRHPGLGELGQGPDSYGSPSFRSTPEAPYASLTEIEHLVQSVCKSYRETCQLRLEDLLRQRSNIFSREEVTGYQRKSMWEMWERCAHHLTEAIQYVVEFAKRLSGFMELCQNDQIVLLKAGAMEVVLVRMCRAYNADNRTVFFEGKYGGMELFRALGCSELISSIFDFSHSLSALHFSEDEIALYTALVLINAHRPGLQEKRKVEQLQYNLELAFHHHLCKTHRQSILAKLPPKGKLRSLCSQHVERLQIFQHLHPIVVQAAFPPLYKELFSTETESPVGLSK

[3] = Plasma clearance in rat; assay type: ADME
[4] = target: T1, Nuclear receptor ROR-gamma; assay: Inhibition of human RORgammat expressed in COS7 cells by luciferase assay; assay type: cell-based
[5] = Inhibition of human Th17 cell differentiation; assay type: functional, cell-based
[6] = Inhibition of IL-17 production in human BAL cells isolated from COPD patients measured after 72 hrs by ELISA based assay; assay type: functional; conditions: Bronchoalveolar lavage cell
[7] = Inhibition of IL-17 production in human PBMC isolated from COPD patients measured after 72 hrs by ELISA based assay; assay type: functional, cell-based
[8] = target: T1, Nuclear receptor ROR-gamma; assay: Antagonist activity at RORgammat LBD (unknown origin) assessed as fluorescent polarization signal measured in presence of fluorescein-labeled LXR agonist T0901317 after 4 hrs by competitive binding assay
[9] = target: T2, Nuclear receptor ROR-gamma (Homo sapiens) (UniProt P51449); assay: Inverse agonist activity at GAL4-RORgammat LBD (unknown origin) expressed in HEK293 cells at 1 uM measured after 24 hrs by nuclear receptor assay relative to control; assay type: cell-based
T2 sequence (whole entry): T1 sequence (P51449 whole entry)

[10] = Oral bioavailability in rat; assay type: ADME, organism-based; conditions: in vivo
[11] = target: T1, Nuclear receptor ROR-gamma; assay: Inverse agonist activity at His-tagged human RORgammat LBD assessed as inhibition of biotinylated RIP140 co-activator peptide binding incubated for 1 hr by TR-FRET assay
Homo sapiens [12] = species: Homo sapiens; assay: Inhibition of IL-17 production in human whole blood measured after 72 hrs by ELISA; assay type: functional
[13] = Unbound fraction in human blood; assay type: ADME, tissue-based
[14] = Unbound fraction in rat blood; assay type: ADME, tissue-based
[15] = target: T1, Nuclear receptor ROR-gamma; assay: Inhibition of GAL4-RORgammat LBD (unknown origin); assay type: cell-based, HEK293
[16] = Half life in rat; assay type: ADME; conditions: in vivo
[17] = Oral bioavailability in dog; assay type: ADME, organism-based, Canis lupus familiaris; conditions: in vivo
[18] = Half life in dog; assay type: ADME, Canis lupus familiaris; conditions: in vivo
[19] = Solubility of the compound; assay type: physicochemical
[20] = Unbound fraction in human plasma; assay type: ADME, cell-free
cells [21] = conditions: Homo sapiens, PBMC
Description: Inhibition of IL-17A secretion in human PBMC cells

Homo sapiens [22] = species: Homo sapiens; assay: tissue or blood
Description: Inhibition of IL-17A secretion in healthy human whole blood

Homo sapiens [23] = species: Homo sapiens; assay: tissue or blood; remark: listed apart in the source
Description: Inhibition of IL-17A secretion in psoriatic human whole blood

Mus musculus [24] = species: Mus musculus; assay: animal or person; conditions: po, read-out: INH
Description: Anti-inflammatory activity against mouse EAE model assessed as reduction in EAE score at 100 mg/kg, po relative to control

cells [25] = conditions: Homo sapiens, PBMC, 96 h
Description: Inhibition of IL17 production in human PBMC cells measured after 4 days by enzyme-linked immunosorbent assay

[26] = target: T1, Nuclear receptor ROR-gamma; assay: Inhibition of human GAL4-fused RORgamma LBD transfected in HEK293T cell measured after 24 hrs by luciferase reporter assay; assay type: cell-based
[27] = Suppression of Th17 polarization in human CD4+ T cells cultured under Th17-skewing conditions measured after 4 days
[28] = Inhibition of SRC1 coactivator recruitment in human PBMC; assay type: functional, cell-based
Mus musculus [29] = assay: Anti-inflammatory activity against psoriasis mouse model assessed as reduction in epidermal thickness treated topically; assay type: functional
Homo sapiens [30] = species: Homo sapiens; assay: Ex-vivo reduction in proinflammatory cytokine levels in psoriasis patient assessed as reduction in IL-17A level in skin tissue at 10 uM measured after 12 to 14 hrs by sRICA assay; assay type: functional; conditions: Skin of body, time 12-14 hrs
Homo sapiens [31] = species: Homo sapiens; assay: Ex-vivo reduction in proinflammatory cytokine levels in psoriasis patient assessed as reduction in IL-17F level in skin tissue at 10 uM measured after 12 to 14 hrs by sRICA assay; assay type: functional; conditions: Skin of body, time 12-14 hrs
Homo sapiens [32] = species: Homo sapiens; assay: Ex-vivo reduction in proinflammatory cytokine levels in psoriasis patient assessed as reduction in IL-22 level in skin tissue at 10 uM measured after 12 to 14 hrs by sRICA assay; assay type: functional; conditions: Skin of body, time 12-14 hrs
Homo sapiens [33] = species: Homo sapiens; assay: Ex-vivo reduction in proinflammatory cytokine levels in psoriasis patient assessed as reduction in IL-19 level in skin tissue at 10 uM measured after 12 to 14 hrs by sRICA assay; assay type: functional; conditions: Skin of body, time 12-14 hrs
cells [34] = conditions: Homo sapiens, PBMC; remark: listed apart in the source

Chain of hERG (KCNH2) (Q12809 whole entry): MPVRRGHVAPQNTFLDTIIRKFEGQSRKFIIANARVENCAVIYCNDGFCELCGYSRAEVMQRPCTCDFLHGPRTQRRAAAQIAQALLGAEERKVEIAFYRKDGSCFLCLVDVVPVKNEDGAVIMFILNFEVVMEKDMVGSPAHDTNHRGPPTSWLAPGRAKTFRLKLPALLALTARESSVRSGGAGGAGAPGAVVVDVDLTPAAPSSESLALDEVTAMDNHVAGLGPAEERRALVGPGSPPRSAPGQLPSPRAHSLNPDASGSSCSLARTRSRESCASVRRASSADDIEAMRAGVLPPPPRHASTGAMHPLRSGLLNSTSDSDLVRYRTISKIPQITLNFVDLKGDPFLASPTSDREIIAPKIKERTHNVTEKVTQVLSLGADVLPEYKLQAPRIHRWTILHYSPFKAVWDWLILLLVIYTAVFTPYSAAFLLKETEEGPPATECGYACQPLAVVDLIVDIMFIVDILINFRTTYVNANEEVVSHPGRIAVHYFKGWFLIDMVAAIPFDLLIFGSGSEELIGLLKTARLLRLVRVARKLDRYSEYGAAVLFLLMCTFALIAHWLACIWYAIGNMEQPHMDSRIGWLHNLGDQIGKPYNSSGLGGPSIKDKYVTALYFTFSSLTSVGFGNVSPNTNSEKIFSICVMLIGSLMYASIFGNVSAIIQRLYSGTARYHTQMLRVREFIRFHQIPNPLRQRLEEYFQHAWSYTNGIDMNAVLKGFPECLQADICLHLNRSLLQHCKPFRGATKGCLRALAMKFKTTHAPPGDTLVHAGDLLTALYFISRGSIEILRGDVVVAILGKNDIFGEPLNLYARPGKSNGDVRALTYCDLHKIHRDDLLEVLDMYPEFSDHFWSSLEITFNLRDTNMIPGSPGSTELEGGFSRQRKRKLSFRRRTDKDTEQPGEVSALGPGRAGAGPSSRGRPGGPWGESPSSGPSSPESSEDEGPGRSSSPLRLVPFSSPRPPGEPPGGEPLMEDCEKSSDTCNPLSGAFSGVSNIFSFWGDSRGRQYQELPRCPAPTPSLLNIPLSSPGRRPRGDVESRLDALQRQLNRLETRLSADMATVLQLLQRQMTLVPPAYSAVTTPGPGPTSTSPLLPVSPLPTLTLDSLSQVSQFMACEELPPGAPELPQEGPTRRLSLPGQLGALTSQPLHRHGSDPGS

## CC[C@H]1c2ncc(C(=O)N[C@@H](CO)c3ccc(S(=O)(=O)CC)cn3)cc2CN1C[C@H]1CC[C@H](C(F)(F)F)CC1
hERG (KCNH2)
  inhibition at 3 µM: 7.7%

## COc1c(NC(=O)c2cccc(C#N)c2)cnc2c1c(C1CCN(C(=O)C3CCCC3)CC1)cn2C
Cells [1]
  IC50: 29.8 nM

## CCOC(=O)CC1CN(Cc2ccc(-c3ccc(C(O)(C(F)(F)F)C(F)(F)F)cc3)cc2)CCN1Cc1ccncc1 (centres undefined)
[2]
  IC50: < 1000 nM

## O=C(O)c1ccc(-c2nn(C(=O)c3c(Cl)cccc3C3(C(F)(F)F)CC3)c3cccnc23)c(F)c1
[3]
  clearance: 5 mL/min/kg

## Cc1ncc(C(=O)Nc2cc(F)cc(CN3CCN(C(=O)C4CCCC4)[C@@H](C)C3)c2C)cn1
[4]
  IC50: 97 nM
[5]
  IC50: 31 nM

## C[C@H]1CCCCN1C(=O)c1nc(C(=O)NCC(C)(C)O)sc1-c1cnc(NCC(C)(C)C)cc1C(F)(F)F
Cells [1]
  IC50: 2.8 nM

## CCn1c(C(C)(C)Oc2ccc(F)cc2F)nc2cc(NC(=O)Cc3ccc(S(=O)(=O)CC)cc3)ccc21
[6]
  IC50: 350 nM
[7]
  IC50: 147 nM

## C[C@H]1CN(Cc2cncc(NS(=O)(=O)c3c(Cl)cc(Cl)cc3Cl)c2)CCN1C(=O)C1CCCC1
[8]
  IC50: 89 nM

## NC(=O)Cc1ccc(CNc2ncnc(N3CCOC[C@@H]3c3ccc(C(F)(F)F)cc3)c2F)cc1
[9]
  inhibition: 80%

## Cc1ncc(C(=O)Nc2cn3ccnc3c(CN3CCN(C(=O)C4CCCC4)[C@@H](C)C3)c2C)cn1
[10]
  bioavailability: 23%
[11]
  IC50: 13 nM
Homo sapiens [12]
  IC50: 168 nM
[13]
  fraction unbound: 0.312
[14]
  fraction unbound: 0.256

## Cc1cc(C(F)(F)F)cc2c1cc(Cc1c(Cl)ccc(C(=O)N3CCN(C4COC4)CC3)c1Cl)n2C
[15]
  IC50: < 100 nM

## CCS(=O)(=O)c1ccc(CNC(=O)c2cnc3c(c2)CN(C[C@H]2CC[C@H](C(F)(F)F)CC2)[C@H]3C(C)C)nc1
[10]
  bioavailability: 64%
[16]
  half-life: 6 h
[17]
  bioavailability: 66%
[18]
  half-life: 15 h
[19]
  solubility: 17 µM (≈ 9.4 µg/mL)
[20]
  fraction unbound: 0.005
Cells [21]
  IC50: 21 nM
Homo sapiens [22]
  IC50: 207 nM
Homo sapiens [23]
  IC50: 250 nM
Mus musculus [24]
  inhibition in vivo at 100 mg/kg: > 95%

## O=C(O)c1ccc(-c2nn(C(=O)c3c(Cl)cccc3C(F)(F)F)c3ccccc23)cc1
Cells [25]
  IC50: 39.6 nM

## COC(=O)[C@]12CCC(C)(C)CC1C1C(=O)C=C3[C@@]4(C)C=C(C#N)C(=O)[C@@](C)(O)[C@@H]4CC[C@@]3(C)[C@]1(C)CC2 (some centres undefined)
[26]
  IC50: 115 nM
[27]
  IC50: 18 nM

## CCc1ccc(N(CC(C)C)S(=O)(=O)c2ccc(OCC3CCOCC3)c(CO)c2)cc1 [GSK2981278]
[28]
  IC50: 20 nM
Mus musculus [29]
  inhibition (INH): 23%
Homo sapiens [30]
  inhibition in vivo at 10 µM: > 50%
Homo sapiens [31]
  inhibition in vivo at 10 µM: > 50%
Homo sapiens [32]
  inhibition in vivo at 10 µM: > 50%
Homo sapiens [33]
  inhibition in vivo at 10 µM: > 50%
Cells [34]
  IC50: 63 nM

## Cc1cnccc1-c1nc(-c2ccccc2)c2c(n1)[C@]1(C)C=C(C#N)C(=O)[C@H](C)[C@H]1CC2
[26]
  IC50: 40 nM
[27]
  IC50: 39 nM
